How the values were obtained:
Type in all cases: cell-based
[1] = system: IRS-1; experiment: Immunoblot analysis of IRS-1 (protein, phosphorylation, half-life, p85 coimmunoprecipitation)
[2] = system: AsPC-1; experiment: MTT cell viability assay; settings: AsPC-1, different doses, 4 days
Description: (§1) 1.1. ZPP and Y29794 induces cytotoxicity to cancer cells by MTT analysis of cell viability. Cells were placed in 96-well plates (3×10^3 cells/well) in octuplicate. The cells were then treated with vehicle or different doses of ZPP for 4 days. Cells were then loaded with 1.2 mM MTT (4,5-Dimethylthiazol-2-vn-2,5-diphenvltetrazolium bromide, a yellow tetrazole) in phenol red-free medium for 4 hours. The cells were then lysed in 10% SDS/0.01M HCL. MTT absorbance (570 nm spectrum) was measured by a microplate reader. The relative absorbance is normalized to the control (vehicle-treated) to indicate relative cell viability. ZPP was purchased from Biomol (Plymouth Meeting, Pa., USA). MTT was purchased from Sigma-Aldrich. Panc-1 and Capan-1 pancreatic cancer cell line, MCF7 and T47D breast cancer cell lines, A549 and HI 703 lung cancer Cell lines were purchased from American Type Culture Collection (ATCC, USA) preparation of pancreatic cancer cell line PK-9 have been disclosed, e.g., Kobari M et al, (1986) Tohoku J Exp Med. 150: 231-248; Etoh T et al, (2003) Clin Cancer Res 9; 1218; Arafat H. et al, (2011) Surgery 150 (2): 306-315. Cells were grown in Dulbecco's Modified. Eagle's (DMEM) medium (Invitrogen, Carlsbad, Calif.) containing 10% fetal bovine serum (FBS) (Hyclone, purchased from Thermo Fisher Scientific, Inc). […] In similar experiments, the cells were treated with different doses of Y29794 for 4 days and analyzed for MTT absorbance. Y29794 oxalate was purchased from Tocris Biosciences (Bristol, UK).

[3] = system: MCF7; experiment: MTT cell viability assay; settings: MCF7, different doses, 4 days
Description: as §1

[4] = system: PK-9; experiment: MTT cell viability assay; settings: PK-9, different doses, 4 days
Description: as §1

[5] = system: H1703; experiment: MTT cell viability assay; settings: H1703, different doses, 4 days
Description: as §1

[6] = system: TD47; experiment: MTT cell viability assay; settings: TD47, different doses, 4 days
Description: as §1

[7] = system: A549; experiment: MTT cell viability assay; settings: A549, different doses, 4 days
Description: as §1

[8] = system: MDAMB231; experiment: MTT cell viability assay; settings: MDAMB231, different doses, 4 days
Description: as §1

[9] = system: Capan-1; experiment: MTT cell viability assay; settings: Capan-1, different doses, 4 days
Description: as §1

CC(C)c1ccc(C(=O)c2cccs2)c(SCCCCCCCCN(C)C)n1 [Y29794, [2-[8-(dimethylamino)octylsulfanyl]-6-propan-2-ylpyridin-3-yl]-thiophen-2-ylmethanone]
IRS-1 protein ([1]; Capan-1, Y29794 1 μM (FIG. 19A)): reduces
IRS-1 protein ([1]; PK-9, Y29794 1 μM (FIG. 19A)): reduces
MTT absorbance (relative cell viability) [2]: dose-dependent cytotoxicity
MTT absorbance (relative cell viability) [3]: dose-dependent cytotoxicity
MTT absorbance (relative cell viability) [4]: dose-dependent cytotoxicity
MTT absorbance (relative cell viability) [5]: dose-dependent cytotoxicity
MTT absorbance (relative cell viability) [6]: dose-dependent cytotoxicity
MTT absorbance (relative cell viability) [7]: dose-dependent cytotoxicity
MTT absorbance (relative cell viability) [8]: dose-dependent cytotoxicity
MTT absorbance (relative cell viability) [9]: dose-dependent cytotoxicity
